How the values were obtained:
[1] = molecular target: T1, recombinant human Muscarinic M1 receptor (Homo sapiens, UniProt P11229); assay: Allosteric potency EC50 for Muscarinic M1 receptor, CHO pCRE-Luc reporter assay with EC20 of acetylcholine; assay type: cell-based; settings: CHO cells, in presence of EC20 of acetylcholine, 4 hours
T1 construct: expressed in transfected cells
T1 sequence (P11229 1-460): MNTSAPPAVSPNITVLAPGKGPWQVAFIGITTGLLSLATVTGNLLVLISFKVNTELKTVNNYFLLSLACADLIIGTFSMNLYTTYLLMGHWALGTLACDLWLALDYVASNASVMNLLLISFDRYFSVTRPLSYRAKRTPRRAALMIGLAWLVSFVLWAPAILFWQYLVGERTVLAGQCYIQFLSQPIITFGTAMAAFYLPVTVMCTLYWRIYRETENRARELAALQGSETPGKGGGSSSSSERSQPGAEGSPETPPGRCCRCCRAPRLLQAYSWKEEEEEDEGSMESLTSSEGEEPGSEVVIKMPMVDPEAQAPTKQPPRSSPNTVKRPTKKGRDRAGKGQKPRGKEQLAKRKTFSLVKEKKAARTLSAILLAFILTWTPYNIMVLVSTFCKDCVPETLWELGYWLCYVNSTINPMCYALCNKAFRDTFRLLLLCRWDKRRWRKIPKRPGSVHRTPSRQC
Method in brief: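 Stable CHO line expressing human M1 receptor with CRE-driven luciferase, serum-starved overnight, then exposed to increasing compound concentrations plus an EC20 of acetylcholine in OptiMEM for 4 hours at 37° C. Luciferase read after lysis, normalized to maximal acetylcholine response; EC50 is concentration giving 50% stimulation.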

[2] = system: hippocampal theta oscillations; assay: Theta modulation in dorsal hippocampus of anesthetized rats in combination with donepezil; assay type: in vivo, Male Wistar rats; settings: anesthetized rat, Example 32 1 mg/kg
Description: Evaluation of Theta Modulation in Dorsal Hippocampus of Anesthetized Male Wistar
Male Wistar rats (240-320 g) were anesthetized by Intraperitoneal administration of urethane (1.2 to 1.5 g/kg) for implantation of a catheter in the left femoral vein. The animal was placed in a stereotaxic frame for implanting an electrode (stainless steel wire, Plastics One) into the dorsal hippocampus (AP: −3.8 mm; ML: +2.2 mm; DV: −2.5 mm; Paxinos and Watson, 2004). Bipolar stimulating electrode (untwisted stainless steel wires, separated by 0.75-1.0 mm at their tips, Plastics One) was implanted in the Nucleus Pontis Oralis (NPO; AP: −7.8 mm; ML: 1.8 mm; DV: −6.0 mm; Paxinos and Watson, 2004). Additionally one electrode was implanted into the cerebellum which served as a reference. Hippocampal θ rhythm was evoked via a 6-s electrical stimulation train (20-160 μA, 0.3-ms pulse duration, 250 Hz) delivered to the NPO at a rate of 0.01 trains/s with a Grass S88 stimulator and PSIU6 stimulus isolation unit (Grass Medical Instruments, Quincy, Mass.). EEG was recorded at a rate of 1000 Hz using Ponemah (Version 5.2) software and stored for off-line analysis using NeuroScore (Version 3.0). Baseline amplitude level was achieved by using the current required to elicit […] to 50% of the maximal amplitude under control conditions. After the stabilization period of one hour, baseline recording was done for 30 min followed by the treatment of vehicle or Example 32 (1 mg/kg, i.v.).
Power in the θ rhythm frequency in the stimulation period during the 30-min baseline period was calculated and the % changes in these measures post treatment were calculated. […] Statistical significance was considered at a p value less than 0.05.

Male Wistar rats = assay: Object recognition task model; assay type: in vivo; settings: rat, 3 mg/kg, p.o.
Protocol: Object Recognition Task Model
The cognition enhancing properties of compounds of this invention were estimated by using this model.
Male Wistar rats (8-10 weeks old) were used as experimental animals. Four animals were housed in each cage. Animals were kept on 20% food deprivation from a day prior to experimentation. Water was provided ad libitum throughout the experiment. Animals were maintained on a 12 hours light/dark cycle in temperature and humidity controlled room. The experiment was carried out in a circular or square arena made up of acrylic. Rats were habituated to individual arenas for up to 1 hour in the absence of any objects on day 1.
One group of 12 rats received vehicle and another set of animals received compound of the formula (I), before the familiar (T1) and choice (T2) trials. During the familiarization phase, (T1), the rats were placed individually in the arena for 3 minutes, in which two identical objects (a1 and a2) were positioned 10 cm from the wall. 24 hours after T1, trial for long-term memory test was performed. The same rats were placed in the same arena as they were placed in T1 trial. During the choice phase (T2) rats were allowed to explore the arena for 3 minutes in presence of a copy of familiar object (a3) and one novel object (b). During the T1 and T2 trial, explorations of each object (defined as sniffing, licking, chewing or having moving vibrissae whilst directing the nose towards the object at a distance of less than 1 cm) were recorded using stopwatch.
T1 is the total time spent exploring the familiar objects (a1+a2).
T2 is the total time spent exploring the familiar object and novel object (a3+b).
The object recognition test was performed as described by Ennaceur, A., Delacour, J., 1988, A new one-trial test for neurobiological studies of memory in rats˜Behavioural data, Behav. Brain Res., 31, 47-59.

[3] = choice trial T2, 24 hours after T1

For `Cn1cc(-c2ccc(Cc3cc(C(=O)N[C@H]4CCCC[C@@H]4O)n4ncccc34)cc2)cn1` [Example 32, N-(cis-1S,2S-2-Hydroxycyclohexyl)-5-[4-(1-methyl-1H-pyrazol-4-yl)-benzyl]-pyrrolo [1,2-b]pyridazine-7-carboxamide], the EC50 [1] was 66 nM, the “Mean area under the curve values (AUC) of θ power change, combination versus donepezil alone” value ([2]; i.v. + donepezil 0.3 mg/kg) was “significantly higher compared to donepezil alone” and the “effect on θ power, combination treatment versus donepezil alone” value ([2]; i.v. + donepezil 0.3 mg/kg) was “significantly higher than the donepezil alone”. For the same compound, the θ power levels ([2]; i.v. in combination with donepezil 0.3 mg/kg) was “significant increase”, the Inference (Male Wistar rats) was “Active” and the “Exploration time mean ± S.E.M, Familiar object” value (Male Wistar rats; [3]) was 11.64 ± 2.16 s. The “Exploration time mean ± S.E.M, Novel object” value (Male Wistar rats; [3]) was 19.81 ± 2.96 s.
